Data on 2 compounds can be found in paper PMC9539280 (Advanced Science, 2022).

Data set [1] relates to hCMs.
Data set [2] has as its system hCMs. The experiment in a line: Spontaneous calcium transient measurement (Fluo-4) in hCMs. Particulars: spontaneous, 6 days.
The mark [3] stands for this setting: escalating concentrations (lopinavir: high dosage only).

On to `Cc1cccc(/C=N/Nc2cc(N3CCOCC3)nc(OCCc3ccccn3)n2)c1` [Apilimod, apilimod], for which the spontaneous calcium transients entry in data set [1] is given as “no calcium transients were observed”.
As to `CCC(CC)COC(=O)[C@H](C)N[P@](=O)(OC[C@H]1O[C@@](C#N)(c2ccc3c(N)ncnn23)[C@H](O)[C@@H]1O)Oc1ccccc1` [Remdesivir, remdesivir], the calcium transient amplitude result in data set [2] (escalating concentrations (1-20 μM)) is given as “tended to decrease”. For the same compound, in data set [2] (setting [3]), the “time to 50% decay of the calcium transients” value is recorded as “significantly increased” and the “time to peak of the calcium transients” value is listed as “significantly increased”.
